Laboratory results: patent publication US11713318B2, “Short conjugated oligoelectrolytes and uses thereof” (The Regents Of The University Of California, priority 2018, dated 2023)
Where two headings read alike, the source gives them in different places.

Assays:
[1] = test system: primary human hepatocytes; assay: Cytotoxicity tested by Eurofins Pharma Discovery Services; format: cell-based; settings: Hepatocyte, data provided by Eurofins, read-out: IC50
[2] = test system: K pneumoniae (clinical isolate); assay: MIC panel of pathogens, Table 4; format: cell-based; settings: clinical isolate from Cottage Hospital
S. pneumoniae Daw 1 = assay: MIC panel of pathogens, Table 4; format: cell-based; settings: Streptococcus pneumoniae, DAW1
P. aeruginosa = assay: MIC panel of pathogens, Table 4; format: cell-based; settings: Pseudomonas aeruginosa
A. baumannii = assay: MIC panel of pathogens, Table 4; format: cell-based; settings: Acinetobacter baumannii
Hep G2 cells = assay: Cytotoxicity tested by Eurofins Pharma Discovery Services; format: cell-based; settings: Homo sapiens, HepG2; Hep G2; data provided by Eurofins; read-out: IC50
[3] = test system: S. epidermidis (ATCC 14990); assay: MIC broth microdilution method, Table 3; settings: Staphylococcus epidermidis, ATCC14990
E. coli K12 (ATCC 47076) = assay: MIC broth microdilution method, Table 3; settings: Escherichia coli, ATCC47076
[4] = test system: S. aureus (MRSA) (clinical isolate); assay: MIC panel of pathogens, Table 4; format: cell-based; settings: Staphylococcus aureus, clinical isolate from Cottage Hospital
S. pneumoniae D39 = assay: MIC panel of pathogens, Table 4; format: cell-based; settings: Streptococcus pneumoniae
S. Typhimurium = assay: MIC panel of pathogens, Table 4; format: cell-based; settings: Salmonella enterica
[5] = test system: RAW264.7 (ATCC TIB-71) cells; assay: Cytotoxicity, MTT assay; format: cell-based, murine; settings: Mus musculus, RAW264.7; RAW 264.7; MTT, 24 hours incubation; read-out: IC50
Method: Before removing the frozen cell stocks from liquid nitrogen, culture medium was pre-warmed to 37° C. The frozen tube was then removed from liquid nitrogen and placed into a 37° C. water bath and shaken gently to thaw the cell stock as quickly as possible. A small portion of the pre-warmed culture medium was added to the cell solution. The cell suspension was then centrifuged at 1000 r/min for 3 minutes. The supernatant was discarded and the cells were resuspended in fresh culture medium.
NIH 3T3 (ATCC CRL-1658) and Hep G2 (ATCC HB-8065) cells were cultured with DMEM+10% FBS in 100 mm dishes. Cells were lifted for subculture or testing when confluence reached ˜60% by treating with 1× trypsin (incubated for 3 min at 37° C.). J774 (ATCC TIB-67) cells were cultured with DMEM+10% FBS in 100 mm dishes. Cells were lifted for subculture or testing when confluence reached ˜80% using a cell scraper. RAW264.7 (ATCC TIB-71) cells were cultured with DMEM+10% heat-inactivated FBS+1% pen/strep in T75 flasks. Cells were lifted for subculture or testing when confluence reached ˜80% using a cell scraper.
• 1. Cells were lifted and resuspended in culture medium. The number of cells in the cell suspension was determined using an auto-cell counter: 10 μL of the cell suspension was mixed with 10 μL 1× trypan blue (filtered with 0.2 μm PES filter) and the mixture was loaded onto a cell counting slide. Based on the concentration of viable cells, the cell suspension was further diluted to achieve the desired density. • 2. […] The 96-well plates were analyzed in a plate reader using the following method: shake for 5 minutes, wait for 30 seconds, and measure absorbance at 570 nm. • 8. Data processing: The average of background Abg was calculated from the blank column. […] The average A. and standard deviation Se of each experimental group and the average Ac and standard deviation Sc for control group (with pure culture medium incubation) were then calculated. The cell viability was determined as Ae/Ac×100% and corresponding error as Se/Ae×100%. […]

S. flexneri = assay: MIC panel of pathogens, Table 4; format: cell-based; settings: Shigella flexneri
Method: (§1) The minimum inhibitory concentration (MIC) was determined according to the Clinical and Laboratory Standards Institute (CLSI) guidelines by broth dilution. […] MIC values were derived after 20 h incubation, and were the result of at least 6 independent determinations.

E. coli = assay: MIC panel of pathogens, Table 4; format: cell-based; settings: Escherichia coli
Method: as §1

HRPTEpiC = assay: Cytotoxicity tested by Eurofins Pharma Discovery Services; format: cell-based; settings: data provided by Eurofins, read-out: IC50
Cytotoxicity, MTT assay = format: cell-based; settings: at the concentration given as IC50 bound, read-out: cell viability at the highest or lowest test concentration
Procedure, shortened: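 Cells seeded at 5000/well (NIH 3T3) or 10000/well (Hep G2, J774, RAW264.7) in DMEM+10% FBS, incubated overnight, then exposed 24 h to 2-fold serial dilutions (9 concentrations, six replicates each). MTT added for 4 h, formazan dissolved in DMSO, A570 read. Viability expressed as blank-corrected absorbance relative to medium-only control.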

[6] = Cytotoxicity tested by Eurofins Pharma Discovery Services; format: cell-based; settings: Primary Human Hepatocytes, Eurofins; at the concentration given as IC50 bound; read-out: cell viability at the highest or lowest test concentration

| Structure (SMILES) | IC50 [1] [µg/mL] | MIC [2] [µg/mL] | MIC (S. pneumoniae Daw 1) [µg/mL] | MIC (P. aeruginosa) [µg/mL] | MIC (A. baumannii) [µg/mL] | IC50 (Hep G2 cells) [µg/mL] | MIC [3] [µg/mL] | MIC (E. coli K12 (ATCC 47076)) [µg/mL] | MIC [4] [µg/mL] | MIC (S. pneumoniae D39) [µg/mL] | MIC (S. Typhimurium) [µg/mL] | IC50 [5] [µg/mL] | MIC (S. flexneri) [µg/mL] | MIC (E. coli) [µg/mL] | IC50 (HRPTEpiC) [µg/mL] | viability at 24 h (Cytotoxicity, MTT assay; human, Hep G2 (ATCC HB-8065) cells, Hep G2) [%] | viability at 24 h (Cytotoxicity, MTT assay; mouse, J774 (ATCC TIB-67) cells) [%] | viability at 24 h (Cytotoxicity, MTT assay; mouse, NIH 3T3 (ATCC CRL-1658) cells, NIH 3T3) [%] | viability [6] [%] |
| --- | --- | --- | --- | --- | --- | --- | --- | --- | --- | --- | --- | --- | --- | --- | --- | --- | --- | --- | --- |
| CCCCCC[N+](C)(C)CCCCCCOc1cc(/C=C/c2cc(OCCCCCC[N+](C)(C)CCCCCC)cc(OCCCCCC[N+](C)(C)CCCCCC)c2)cc(OCCCCCC[N+](C)(C)CCCCCC)c1 [Formula E] | 13.2 | 4 | 8 | 8 | 4 | 5.6 | 4 | 4 | 1 | 4 | 2 | 3.76 | 2 | 2 | 2.6 | – | – | – | – |
| C[N+](C)(C)CCCCOc1cc(/C=C/c2ccc(/C=C/c3cc(OCCCC[N+](C)(C)C)cc(OCCCC[N+](C)(C)C)c3)cc2)cc(OCCCC[N+](C)(C)C)c1.[I-].[I-].[I-].[I-] [Formula F] | > 324 | – | – | – | – | > 324 | 2 | 32 | – | – | – | – | – | – | 79.2 | 100 | 51 | 56.2 | 79 |
